Patent US20250108141A1, “TOPICAL FORMULATIONS FOR TARGETED DELIVERY OF THERAPEUTICS” (UNM RAINFOREST INNOVATIONS, priority 2023, published 2025)
Entries after “also recorded” stand apart in the source; their conditions may differ.

What was measured:
[1] = tested on: HPV16-infected SG3 cells; assay: MK-8353 treatment of HPV16-infected SG3 cells, immunoblot; type: cell-based; details: MK-8353 dissolved in Tc, 48 h
Method: The p-ERK1/2 inhibitor MK-8353 (Selleck Chemicals LLC, Houston, TX) was dissolved in 2-(2-ethoxyethoxy)ethanol (Tc) at 5 mM. HPV16-infected SG3 cells were plated in complete medium and then treatments were initiated without active agent or with increasing concentrations of MK-8353 in serum-free medium. At 24 h post treatment, fresh treatments were added and maintained for an additional 24 h. Cells treated for 48 h were lysed with detergent-containing buffer and 50 μg of each sample was analyzed by SDS-PAGE and immunoblot for the proteins of interest including p-ERK1/2, p-Fra1, HPV16 E7, and actin.

[2] = tested on: MmuPV1; assay: MmuPV1-induced tail tumor (wart) model, oral gavage; type: in vivo; details: oral gavage every 48 hours for four weeks, cobimetinib 7.5 or 15 mg/kg, trametinib 1.0 or 2.0 mg/kg, athymic nude mice
Method: FIG. 3. […] Female Hsd:Athymic Nude-Foxn1^nu mice were infected with 2×10^8 viral genome equivalents (VGE) of MmuPV1 virions. Tumors (warts) were allowed to grow for 6 weeks before randomizing into vehicle or treatment groups (n=6 per group) with each group having an average tumor volume (length×width×height) of approximately 40 mm^3. Mice were dosed by oral gavage treatment every 48 hours for four weeks before harvesting each tumor for histology. (A) Quantification of tail tumor volumes over 32 days of treatment in mice infected with MmuPV1 and treated with vehicle, 7.5 mg/kg cobimetinib, or 15 mg/kg cobimetinib. (B) Quantification of tail tumor volume over 32 days of treatment in mice infected with MmuPV1 and treated with vehicle (same as in FIG. 3A), 1.0 mg/kg trametinib, or 2.0 mg/kg trametinib. Statistical analyses by two-way Anova, Dunnett's T3 test ([…], ** p<0.01). (C) Representative images of tail tumors of a mouse treated with vehicle only. (D) Representative images of tail tumors of a mouse treated with 7.5 mg/kg cobimetinib or 15 mg/kg cobimetinib. (E) Representative images of tail tumors of a mouse treated with 1.0 mg/kg trametinib or 2.0 mg/kg trametinib.

[3] = tested on: HPV16-infected SG3 human keratinocytes; assay: Topical treatment of HPV16-infected 3D organotypic epithelial raft tissues; type: cell-based; details: TABLE 2 formulations, single topical treatment, 96 hours
[4] = tested on: HPV16-infected cells established from cervix (W12-E); assay: HPV16-infected W12-E 3D organotypic raft tissue, trametinib added systemically; type: cell-based; details: 10 nM trametinib added systemically every 48 hours on days 8, 10, 12
Method: FIG. 2. Histology data showing that HPV16 oncogene transcription and activity is modulated by MEK1/2 activation in 3D organotypic epithelial tissue cultures. HPV16-infected cells established from cervix (W12-E) were cultured as raft tissues for 14 days. Panels A-D are taken from tissues cultured under normal conditions. Panels E-H are images of tissue cultured with 10 ng/mL EGF added systemically (in the cell culture medium below the basal layer and collagen matrix) every 48 hours on days 8, 10, and 12 post raft tissue lifting to the air-liquid interface. Panels I-L are images of tissues cultured with 10 nM trametinib added systemically every 48-hours on days 8, 10, and 12 post raft tissue lifting to the air-liquid interface. Tissues were examined for morphology (Top, H&E staining), phosphorylated ERK1/2 (p-ERK1/2) immunohistochemistry (brown), HPV E6&E7 mRNA in situ hybridization (red), and E7 activity via proxy p16INK4A immunohistochemistry. Broken lines underscore the basal cell layer above the collagen matrix; bars=100 μm.

[5] = tested on: HPV16-infected SG3 human keratinocytes; assay: Topical treatment of HPV16-infected 3D organotypic epithelial raft tissues; type: cell-based
Method: FIG. 6. […] HPV16-infected (SG3) cells were cultured as raft tissues for 12 days. Duplicate raft tissues were left untreated, or topically treated with 0.5 ml of either vehicle gel (20% Tc, 2.5% HPC in PBS) alone or 30 μM trametinib in vehicle gel for 48 hours. One raft from each duplicate set was collected for total protein extraction for SDS-PAGE and immunoblots (A), the second raft was harvested for tissue fixation, paraffin embedding, and cross-sectioning of tissues for histology (B-J). […] Panels B-D show histology by H&E staining in untreated, vehicle-treated, and 30 μM trametinib-treated rafts. […] Broken lines underscore the basal cell layer.
FIG. 18. Experiment akin to that in FIG. 6, except that it uses 2.5% HPC and 10% Tc for the vehicle. Drug treatment includes 15 μM trametinib. Experimental groups were treated with the topical formulations for 24 hours or 48 hours before harvesting for immunoblots and tissue sectioning.
The experimental protocol used in this example is illustrated in FIG. 5. A semi-solid collagen-fibroblast matrix was created to act as a dermal equivalent (stage 1). HPV16-infected SG3 human keratinocytes (cells) that maintained circular HPV16 genomes extrachromosomally were seeded on the top of the dermal equivalent submerged in growth medium (stage 2). After the HPV-infected keratinocytes grew to confluency (2-3 days), growth medium was removed, and the dermal equivalent was lifted to the air-liquid interface above fresh growth medium (stage 3). Fresh medium was replaced every two days. This allowed the keratinocytes to stratify and differentiate into a multilayered epithelium akin to human skin/mucosa within 10-12 days (Stage 4).
The MEK1/2 inhibitor trametinib was dissolved in diethylene glycol monoethyl ether (TRANSCUTOL; Gattefosse SAS, Saint-Priest, France). The trametinib-2-(2-ethoxyethoxy)ethanol solution was combined with hydroxypropyl cellulose (KLUCEL MXF Pharma, 850 kDa), a pharmaceutical grade thermal gelation agent. Formulations of 30 μM trametinib, 20% 2-(2-ethoxyethoxy)ethanol, and 2.5% hydroxypropyl cellulose applied one time to stratified and differentiated HPV16-infected three-dimensional organotypic epithelial “raft” tissues cultured at the air-liquid interface for 12 days. Each treatment was carried out in duplicate. Tissues were harvested daily two to five days post treatment for total protein extraction and histological analyses (FIG. 6). Specifically, each raft tissue was divided in half with a scalpel. One half was subject to total protein extraction, SDS-PAGE and immunoblot; the second half was fixed in 10% neutral buffered formalin, embedded in paraffin, and sectioned ([…]) on to microscope slides. The tissue sections were subject to histology, immunohistochemistry, or in situ hybridization.
Formulations according to TABLE 2 were prepared. Epithelial raft tissues were prepared as described in Example 1. Each formulation was topically applied to duplicate HPV-infected raft epithelial tissues.
Each formulation was left on the tissue raft undisturbed for 48 hours. 48 hours after treatment, tissues were harvested for protein extraction and histological analysis as described above.
In Example 3, epithelial raft tissues were topically treated in duplicate with formulations including trametinib and 2-(2-ethoxyethoxy)ethanol and analyzed for p-ERK1/2 and E7 protein expression after three days (72 hours). Epithelial raft tissues were prepared as described in Example 1. Formulations were prepared according to TABLE 2. Each epithelial raft tissue was topically treated with one formulation. 72 hours after treatment, epithelial raft tissues were collected for protein extraction.

[6] = tested on: MmuPV1; assay: Topical gel treatment of MmuPV1-induced tumors in vivo; set-up: species or system mice; details: daily topical gel (2.5% HPC, 15%-18% TRANSCUTOL) with trametinib 150 μM-600 μM; starting tumors 145.3 mm^3 to 279.4 mm^3
Method: Mice bearing MmuPV1-induced tumors ranging in volume from 145.3 mm^3 to 279.4 mm^3 were treated daily with a topical gel (2.5% HPC, 15%-18% TRANSCUTOL (Gattefosse SAS, Saint-Priest, France)) containing the MEK inhibitor trametinib (150 μM-600 μM).

[7] = increasing concentrations in serum-free medium
[8] = 15 μM trametinib in 2.5% HPC and 10% Tc vehicle, 24 hours or 48 hours
[9] = TABLE 2 formulations, 30 μM trametinib, single topical treatment, 48 hours

## CS[C@@]1(C(=O)Nc2ccc3[nH]nc(-c4ccc(OC(C)C)nc4)c3c2)CCN(CC(=O)N2CC=C(c3ccc(-c4ncn(C)n4)cc3)CC2)C1 [MK-8353]
[1]
  phosphorylation of ERK1/2 (p-ERK1/2): does not necessarily prevent
[1]; [7]
  levels of the HPV16 E7 oncoprotein: reduce the levels
  p-ERK1/2 activity as measured by p-Fra1 phosphorylation: Suppresses

## O=C(c1ccc(F)c(F)c1Nc1ccc(I)cc1F)N1CC(O)([C@@H]2CCCCN2)C1 [cobimetinib, (S)-[3,4-Difluoro-2-(2-fluoro-4-iodophenylamino)phenyl][3-hydroxy-3-(piperidin-2-yl)azetidine-1-yl]methanone]
[2]
  tail tumor (wart) volume: suppresses MmuPV1-induced benign tumor (e.g., wart) growth
[2]; listed as Cobimetinib
  tail tumor (wart) volume: suppresses wart growth but did not lead to regression

## CC(=O)Nc1cccc(-n2c(=O)n(C3CC3)c(=O)c3c(Nc4ccc(I)cc4F)n(C)c(=O)c(C)c32)c1 [trametinib, N-(3-{3-Cyclopropyl-5-[(2-fluoro-4-iodophenyl)amino]-6,8-dimethyl-2,4,7-trioxo-3,4,6,7-tetrahydropyrido[4,3-d]pyrimidin-1 (2H)-yl}phenyl)acetamide]
[3]
  E7 by immunoblot: decrease
  p-ERK1/2 by immunoblot: decrease
[2]
  tail tumor (wart) volume: leads to tumor regression; also recorded: regression of warts to a smaller size than those originally treated
[4]
  E7 activity (E7 surrogate p16INK4A protein): suppresses
  MEK activation (p-ERK1/2 immunohistochemistry): suppresses
  production of E6/E7 mRNA (in situ hybridization): suppresses
[4]; raft tissues cultured 14 days
  hyperproliferation: suppresses
[5]; [8]
  E6/E7 mRNA detection: reduced
  p-ERK1/2 protein detection: reduced
[5]; 30 μM trametinib, 20% 2-(2-ethoxyethoxy)ethanol, 2.5% HPC gel, applied one time, two days (48 hours) post treatment
  p-ERK1/2 by immunoblot: complete suppression; also recorded: reduction in p-ERK1/2 to almost undetectable levels
[5]; 30 μM trametinib, 20% Tc, 2.5% HPC gel, applied one time, three to five days post treatment
  p-ERK1/2 suppression, later harvests: sustained
[5]; 30 μM trametinib, 20% Tc, 2.5% HPC gel, 48 hours
  p-ERK1/2 by immunohistochemistry: abrogates
[5]; 30 μM trametinib, 20% Tc, 2.5% HPC gel, two days post treatment
  HPV16 E6/E7 mRNA by in situ hybridization: complete suppression; also recorded: reduces E6/E7 mRNA to undetectable levels
[5]; [9]
  HPV16 E7 protein by immunoblot: suppresses
  p-ERK1/2 by immunoblot: suppresses
[5]; one-time topical treatment, 30 μM trametinib, 20% Tc, 2.5% HPC
  hyperplasia: suppressed
[6]
  MmuPV1 tumor volume: promotes MmuPV1 tumor regression
